In the NIST ThermoML archive (doi:10.1021/je900311v):
Numbers after ± are expanded uncertainties.

Assays:
[1] = 298.15 K; 101.33 kPa; Liquid
[2] = excess molar enthalpy (molar enthalpy of mixing); xn = mol fraction of the nth substance listed; settings: 298.15 K, 101 kPa, Liquid, Calvet calorimetry

CCCCCCCCCCCCCCCC [hexadecane]
Settings | mass density [kg/m3]
[1] | 770.31 ± 0.61

CCCCCCC(C)=O [2-octanone] + CCCCCCCCCCCCCC
[2]
Settings | excess molar enthalpy [kcal/mol]
x1 = 0.0383 | 0.0506 ± 0.000765
x1 = 0.0737 | 0.0908 ± 0.00124
x1 = 0.1066 | 0.123 ± 0.00163
x1 = 0.1373 | 0.15 ± 0.00194
x1 = 0.1659 | 0.173 ± 0.00222
x1 = 0.1927 | 0.191 ± 0.00239
x1 = 0.2226 | 0.209 ± 0.00263
x1 = 0.2504 | 0.223 ± 0.00287
x1 = 0.2763 | 0.235 ± 0.00311
x1 = 0.3005 | 0.244 ± 0.00311
x1 = 0.3231 | 0.252 ± 0.00311
x1 = 0.3443 | 0.258 ± 0.00335
x1 = 0.3678 | 0.263 ± 0.00335
x1 = 0.3898 | 0.267 ± 0.00335
x1 = 0.4102 | 0.27 ± 0.00335
x1 = 0.4151 | 0.273 ± 0.00335
x1 = 0.4243 | 0.274 ± 0.00359
x1 = 0.4339 | 0.275 ± 0.00359
x1 = 0.444 | 0.275 ± 0.00359
x1 = 0.4546 | 0.276 ± 0.00359
x1 = 0.4657 | 0.276 ± 0.00359
x1 = 0.4756 | 0.276 ± 0.00359
x1 = 0.486 | 0.276 ± 0.00359
x1 = 0.4968 | 0.275 ± 0.00359
x1 = 0.5082 | 0.275 ± 0.00359
x1 = 0.52 | 0.274 ± 0.00335
x1 = 0.5304 | 0.272 ± 0.00335
x1 = 0.5412 | 0.271 ± 0.00335
x1 = 0.5525 | 0.27 ± 0.00335
x1 = 0.5643 | 0.268 ± 0.00335
x1 = 0.5765 | 0.265 ± 0.00335
x1 = 0.5893 | 0.263 ± 0.00335
x1 = 0.6004 | 0.26 ± 0.00335
x1 = 0.612 | 0.257 ± 0.00335
x1 = 0.624 | 0.254 ± 0.00311
x1 = 0.6364 | 0.25 ± 0.00311
x1 = 0.6494 | 0.246 ± 0.00311
x1 = 0.6629 | 0.241 ± 0.00311
x1 = 0.6753 | 0.237 ± 0.00311
x1 = 0.6882 | 0.232 ± 0.00287
x1 = 0.7016 | 0.226 ± 0.00287
x1 = 0.7155 | 0.22 ± 0.00287
x1 = 0.73 | 0.213 ± 0.00263
x1 = 0.7451 | 0.205 ± 0.00263
x1 = 0.7709 | 0.191 ± 0.00239
x1 = 0.7844 | 0.183 ± 0.00234
x1 = 0.7985 | 0.175 ± 0.00225
x1 = 0.8131 | 0.165 ± 0.00213
x1 = 0.8282 | 0.155 ± 0.00201
x1 = 0.8413 | 0.146 ± 0.00189
x1 = 0.8549 | 0.136 ± 0.00177
x1 = 0.8689 | 0.125 ± 0.00165
x1 = 0.8834 | 0.113 ± 0.00151
x1 = 0.8983 | 0.101 ± 0.00136
x1 = 0.9138 | 0.0873 ± 0.0012
x1 = 0.9271 | 0.0752 ± 0.00105
x1 = 0.9409 | 0.0622 ± 0.000884
x1 = 0.955 | 0.0482 ± 0.000741
x1 = 0.9695 | 0.0332 ± 0.000574
x1 = 0.9845 | 0.017 ± 0.000406

CCCCCCC(C)=O [2-octanone]
Settings | mass density [kg/m3]
[1] | 814.28 ± 0.55
